# Results reported in patent US20260184675A1, “CHIRAL ISOMERIC SULFITE COMPOUND AND APPLICATION THEREOF” (Chengdu Hanova BioSciences Co., Ltd, priority 2024, published 2026).
# Legend:
# Assay type in all cases: in vivo
# [1] = test system: eggs of Tetranychus urticae; experiment: Effect on hatching of eggs of Tetranychus urticae, leaf disc method; conditions: 5 ppm; for Hatching rate (%): 5 days after insecticide delivery
# Method: (§1) • (1) Preparation of leaf discs containing eggs: 20 female adult mites of Tetranychus cinnabarinus were transferred onto leaf discs of Vicia faba with a diameter of 2.0 cm (with wetted filter paper at the bottom), then covered it with a lidded culture dish and cultivated under moisturizing conditions, the adult mites were removed within 36 hours and microscopic examination and counting were performed on leaf discs containing eggs. • (2) Investigation of egg population base: Before pesticide soaking, a microscopic examination was conducted on the egg basic number of each leaf disc, with 2 replicates set for each treatment. • (3) Pesticide soaking treatment: The leaf butterflies loaded with mite eggs were soaked in clear water and sulfite compounds for 10 seconds, respectively, then taken out and cultivated under moisturizing conditions. Each treatment should be repeated for no less than 3 times. • (4) Cultivation and observation: The […] were cultivated under normal conditions. Five days after insecticide delivery, the hatching status of mite eggs was investigated. • Note: The temperature and humidity conditions of the constant temperature and humidity incubator after the treatment should be controlled so as to avoid excessive temperature differences, which may cause generation and dripping of condensate water in the culture dish, resulting in abnormal death of eggs due to soaking in water; it is also necessary to ensure sufficient strong ambient light, without directing irradiating the leaves. • (5) Survey of Results: The experimental materials of each treatment group were regularly hydrated and moisturized, and the hatching of eggs was observed. On the 7th day after insecticide delivery, the number of hatched eggs for each treatment was recorded, and the survey of results was recorded in the original notebook. According to the experimental requirements and characteristics of agents, the survey time can be shortened or extended.
# (§2) • 1) Surveying and recording the number of hatched eggs for each treatment. • 2) Photographing and recording whether there was any pesticide damage to the leaf discs of Vicia faba. • 3) Recording the developmental status of experimental mite eggs, behavior status of nymph mites, including abnormal phenomena such as delayed or stopped development of mite eggs, difficulty in breaking hull for nymph mites, or painful struggles after hatching, etc. • (6) Calculation method: Based on the survey data, the prevention and control effect of each treatment was calculated according to the following formula, and the calculation results were kept to two decimal places.
# (§3) This test adopted the method in Test Example 1 of technical section, mainly used leaf disc method to explore the inhibitory effect on hatching of eggs of Tetranychus urticae by compounds 1-(S,S), 1-(S,R), 1-(R,R), 1-(R,S), 1′-(S,S), 1′-(S,R), 1′-(R,R), 1′-(R,S), compound 1, compound 1′, S-10, R-10, S-10′, R-10′, compound 10, compound 10′, compound 19-(S,S), 19-(S,R), 19-(R,R), 19-(R,S), 19′-(S,S), 19′-(S,R), 19′-(R,R), 19′-(R,S), compound 19, and compound 19′. The concentration of all compounds was 5 ppm.
# [2] = test system: eggs of Spodoptera litura; experiment: Effect on hatching of eggs of Spodoptera litura, egg piece soaking; conditions: 500 ppm; for Hatching rate (%), Replicate 1 / Hatching rate (%), Replicate 2 / Hatching rate (%), Replicate 3 / Number of unhatched larvae 4 days after insecticide delivery, Replicate 1 / Number of unhatched larvae 4 days after insecticide delivery, Replicate 2 / Number of unhatched larvae 4 days after insecticide delivery, Replicate 3: Spodoptera litura eggs; for Hatching rate (%), Replicate 1 / Hatching rate (%), Replicate 2 / Hatching rate (%), Replicate 3: 4 days after delivery; for Number of unhatched larvae 4 days after insecticide delivery, Replicate 1 / Number of unhatched larvae 4 days after insecticide delivery, Replicate 2 / Number of unhatched larvae 4 days after insecticide delivery, Replicate 3: soaked 10 minutes
# Method: • (1) Preparation of paper containing eggs: the egg mass was cut into small pieces, each containing about 60 eggs, soaked in a preformulated test agent for 10 minutes together with paper for egg raising (concentration of each compound of 500 ppm). After taken out, absorbent paper was used to absorb the excess solution adhered to the paper for egg raising and egg pieces. (2) Cultivation: Each egg piece was separately placed in a glass test tube (5.0 cm in height, 2.5 cm in diameter, the same below), which was sealed with plastic paper punctured with fine holes using insect needles and cultivated in an artificial climate chamber at a temperature of (24±1° C.), a relative humidity of (80±10) %, and a photoperiod of L:D=12:12. When the eggs developed until they were about to hatch, castor leaves with a diameter of about 3 cm were added for feeding the hatching larvae; • (3) Observation: the number of hatched and unhatched eggs per egg piece was checked and recorded, and the hatching rate of eggs was calculated according to the formula. Each treatment was repeated for 3 times. • (4) Survey of results: The experimental materials of each treatment group were regularly hydrated and moisturized, and the hatching of eggs was observed. On the 4th day after insecticide delivery, the number of hatched eggs for each treatment was recorded, and the survey of results was recorded in the original notebook. According to the experimental requirements and characteristics of agents, the survey time can be shortened or extended. • 1) Surveying and recording the number of hatched eggs for each treatment. • 2) Recording the developmental status of experimental eggs of Spodoptera litura, behavior status of nymphs, including abnormal phenomena such as delayed or stopped development of eggs of Spodoptera litura, etc. • (5) Calculation method: Based on the survey data, the prevention and control effect of each treatment was calculated according to the following formula, and the calculation results were kept to two decimal places. [formula] [formula]
# [3] = test system: eggs of Thrips; experiment: Effect on hatching of eggs of Thrips, leaf disc method; conditions: 100 ppm; for Hatching rate (%): 5 days after insecticide delivery
# Method: as §1, §2
# as §3, with “Thrips” for “Tetranychus urticae”, “by” for “by compounds”, “100” for “5”
# [4] = test system: eggs of Panonychus citri; experiment: Effect on hatching of eggs of Panonychus citri, leaf disc method; conditions: 1 ppm; for Hatching rate (%), Replicate 1 / Hatching rate (%), Replicate 2 / Hatching rate (%), Replicate 3 / Number of hatched larvae 5 days after insecticide delivery, Replicate 1 / Number of hatched larvae 5 days after insecticide delivery, Replicate 2 / Number of hatched larvae 5 days after insecticide delivery, Replicate 3: Panonychus citri eggs; for Hatching rate (%), Replicate 1 / Hatching rate (%), Replicate 2 / Hatching rate (%), Replicate 3: 5 days after delivery; for Number of hatched larvae 5 days after insecticide delivery, Replicate 1 / Number of hatched larvae 5 days after insecticide delivery, Replicate 2 / Number of hatched larvae 5 days after insecticide delivery, Replicate 3: leaf disc
# Method: as §1, §2
# as §3, with “the” for “the inhibitory”, “Panonychus citri” for “Tetranychus urticae”, “1” for “5”
# [5] = Replicate 1, listed as 1′-(S, R)
# [6] = Replicate 2, listed as 1′-(S, R)
# [7] = Replicate 3, listed as 1′-(S, R)
compound,measurement,setting,value
CC(C)(COc1ccc(Cl)cc1Cl)OS(=O)OCCF (centres unmarked) [Compound S-10],inhibitory activity on the hatching of eggs of Tetranychus urticae (in words),[1],strong inhibitory activities
same,Hatching rate (%),[1]; Replicate 1,0.00%
same,Hatching rate (%),[1]; Replicate 2,0.00%
same,Number of hatched larvae 5 days after insecticide delivery,[1]; Replicate 1,0
same,Number of hatched larvae 5 days after insecticide delivery,[1]; Replicate 2,0
same,inhibitory activity on the hatching of eggs of Spodoptera litura (in words),[2],good inhibitory activities
same,"Hatching rate (%), Replicate 1",[2],21.43%
same,"Hatching rate (%), Replicate 2",[2],22.86%
same,"Hatching rate (%), Replicate 3",[2],24.19%
same,"Number of unhatched larvae 4 days after insecticide delivery, Replicate 1",[2],44
same,"Number of unhatched larvae 4 days after insecticide delivery, Replicate 2",[2],54
same,"Number of unhatched larvae 4 days after insecticide delivery, Replicate 3",[2],47
same,inhibitory activity on the hatching of eggs of Thrips (in words),[3],strong inhibitory activities
same,Hatching rate (%),[3]; Replicate 1,0.00%
same,Hatching rate (%),[3]; Replicate 2,0.00%
same,Hatching rate (%),[3]; Replicate 3,0.00%
same,Number of hatched larvae 5 days after insecticide delivery,[3]; Replicate 1,0
same,Number of hatched larvae 5 days after insecticide delivery,[3]; Replicate 2,0
same,Number of hatched larvae 5 days after insecticide delivery,[3]; Replicate 3,0
same,inhibitory effect on the hatching of eggs of Panonychus citri (in words),[4],good inhibitory effects
same,"Hatching rate (%), Replicate 1",[4],0.00%
same,"Hatching rate (%), Replicate 2",[4],0.00%
same,"Hatching rate (%), Replicate 3",[4],0.00%
same,"Number of hatched larvae 5 days after insecticide delivery, Replicate 1",[4],0
same,"Number of hatched larvae 5 days after insecticide delivery, Replicate 2",[4],0
same,"Number of hatched larvae 5 days after insecticide delivery, Replicate 3",[4],0
"CC(COc1ccc(Cl)cc1Cl)OS(=O)OCCF [1′-(S,R)]",inhibitory activity on the hatching of eggs of Tetranychus urticae (in words),[1],strong inhibitory activities
same,Hatching rate (%),[1]; [5],0.00%
same,Hatching rate (%),[1]; [6],0.00%
same,Number of hatched larvae 5 days after insecticide delivery,[1]; [5],0
same,Number of hatched larvae 5 days after insecticide delivery,[1]; [6],0
same,inhibitory activity on the hatching of eggs of Spodoptera litura (in words),[2],good inhibitory activities
same,"Hatching rate (%), Replicate 1","[2]; listed as 1′-(S, R)",27.87%
same,"Hatching rate (%), Replicate 2","[2]; listed as 1′-(S, R)",26.98%
same,"Hatching rate (%), Replicate 3","[2]; listed as 1′-(S, R)",21.05%
same,"Number of unhatched larvae 4 days after insecticide delivery, Replicate 1","[2]; listed as 1′-(S, R)",44
same,"Number of unhatched larvae 4 days after insecticide delivery, Replicate 2","[2]; listed as 1′-(S, R)",46
same,"Number of unhatched larvae 4 days after insecticide delivery, Replicate 3","[2]; listed as 1′-(S, R)",45
same,inhibitory activity on the hatching of eggs of Thrips (in words),[3],strong inhibitory activities
same,Hatching rate (%),[3]; [5],0.00%
same,Hatching rate (%),[3]; [6],0.00%
same,Hatching rate (%),[3]; [7],0.00%
same,Number of hatched larvae 5 days after insecticide delivery,[3]; [5],0
same,Number of hatched larvae 5 days after insecticide delivery,[3]; [6],0
same,Number of hatched larvae 5 days after insecticide delivery,[3]; [7],0
same,inhibitory effect on the hatching of eggs of Panonychus citri (in words),[4],good inhibitory effects
same,"Hatching rate (%), Replicate 1","[4]; listed as 1′-(S, R)",0.00%
same,"Hatching rate (%), Replicate 2","[4]; listed as 1′-(S, R)",0.00%
same,"Hatching rate (%), Replicate 3","[4]; listed as 1′-(S, R)",0.00%
same,"Number of hatched larvae 5 days after insecticide delivery, Replicate 1","[4]; listed as 1′-(S, R)",0
same,"Number of hatched larvae 5 days after insecticide delivery, Replicate 2","[4]; listed as 1′-(S, R)",0
same,"Number of hatched larvae 5 days after insecticide delivery, Replicate 3","[4]; listed as 1′-(S, R)",0
CC(COS(=O)OCCF)Oc1ccc(Cl)cc1Cl (centres unmarked) [Compound 1],inhibitory activity on the hatching of eggs of Tetranychus urticae (in words),[1],strong inhibitory activities
same,Hatching rate (%),[1]; Replicate 1,0.94%
same,Hatching rate (%),[1]; Replicate 2,1.30%
same,Number of hatched larvae 5 days after insecticide delivery,[1]; Replicate 1,1
same,Number of hatched larvae 5 days after insecticide delivery,[1]; Replicate 2,1
same,"Hatching rate (%), Replicate 1",[2],41.38%
same,"Hatching rate (%), Replicate 2",[2],39.68%
same,"Hatching rate (%), Replicate 3",[2],40.42%
same,"Number of unhatched larvae 4 days after insecticide delivery, Replicate 1",[2],34
same,"Number of unhatched larvae 4 days after insecticide delivery, Replicate 2",[2],38
same,"Number of unhatched larvae 4 days after insecticide delivery, Replicate 3",[2],37
same,inhibitory activity on the hatching of eggs of Thrips (in words),[3],strong inhibitory activities
same,Hatching rate (%),[3]; Replicate 1,0.00%
same,Hatching rate (%),[3]; Replicate 2,1.57%
same,Hatching rate (%),[3]; Replicate 3,0.00%
same,Number of hatched larvae 5 days after insecticide delivery,[3]; Replicate 1,0
same,Number of hatched larvae 5 days after insecticide delivery,[3]; Replicate 2,2
same,Number of hatched larvae 5 days after insecticide delivery,[3]; Replicate 3,0
same,inhibitory effect on the hatching of eggs of Panonychus citri (in words),[4],good inhibitory effects
same,"Hatching rate (%), Replicate 1",[4],0.00%
same,"Hatching rate (%), Replicate 2",[4],0.00%
same,"Hatching rate (%), Replicate 3",[4],0.00%
same,"Number of hatched larvae 5 days after insecticide delivery, Replicate 1",[4],0
same,"Number of hatched larvae 5 days after insecticide delivery, Replicate 2",[4],0
same,"Number of hatched larvae 5 days after insecticide delivery, Replicate 3",[4],0
